This is an account of results in US20140058103A1, “Inhibitors of PI3K-Delta and Methods of Their Use and Manufacture” (Exelixis, Inc., priority 2010, published 2014).

The structures appear in SMILES notation.

The target of the test is PI3K delta (Homo sapiens, UniProt O00329). The test can be described thus: Luciferase-coupled chemiluminescence kinase assay (ATP consumption, KinaseGlo). In kind it is biochemical. In a few lines:
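ATP consumption measured by KinaseGlo luciferase chemiluminescence after a 2 h reaction at ambient temperature, with ATP at or below the kinase KM. Ten inhibitor concentrations per curve; IC50 from four-parameter nonlinear regression.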
On the technique in general: Kinase-Glo measures the ATP left after a reaction by luminescence.

PI3K delta, sequence (O00329 whole entry): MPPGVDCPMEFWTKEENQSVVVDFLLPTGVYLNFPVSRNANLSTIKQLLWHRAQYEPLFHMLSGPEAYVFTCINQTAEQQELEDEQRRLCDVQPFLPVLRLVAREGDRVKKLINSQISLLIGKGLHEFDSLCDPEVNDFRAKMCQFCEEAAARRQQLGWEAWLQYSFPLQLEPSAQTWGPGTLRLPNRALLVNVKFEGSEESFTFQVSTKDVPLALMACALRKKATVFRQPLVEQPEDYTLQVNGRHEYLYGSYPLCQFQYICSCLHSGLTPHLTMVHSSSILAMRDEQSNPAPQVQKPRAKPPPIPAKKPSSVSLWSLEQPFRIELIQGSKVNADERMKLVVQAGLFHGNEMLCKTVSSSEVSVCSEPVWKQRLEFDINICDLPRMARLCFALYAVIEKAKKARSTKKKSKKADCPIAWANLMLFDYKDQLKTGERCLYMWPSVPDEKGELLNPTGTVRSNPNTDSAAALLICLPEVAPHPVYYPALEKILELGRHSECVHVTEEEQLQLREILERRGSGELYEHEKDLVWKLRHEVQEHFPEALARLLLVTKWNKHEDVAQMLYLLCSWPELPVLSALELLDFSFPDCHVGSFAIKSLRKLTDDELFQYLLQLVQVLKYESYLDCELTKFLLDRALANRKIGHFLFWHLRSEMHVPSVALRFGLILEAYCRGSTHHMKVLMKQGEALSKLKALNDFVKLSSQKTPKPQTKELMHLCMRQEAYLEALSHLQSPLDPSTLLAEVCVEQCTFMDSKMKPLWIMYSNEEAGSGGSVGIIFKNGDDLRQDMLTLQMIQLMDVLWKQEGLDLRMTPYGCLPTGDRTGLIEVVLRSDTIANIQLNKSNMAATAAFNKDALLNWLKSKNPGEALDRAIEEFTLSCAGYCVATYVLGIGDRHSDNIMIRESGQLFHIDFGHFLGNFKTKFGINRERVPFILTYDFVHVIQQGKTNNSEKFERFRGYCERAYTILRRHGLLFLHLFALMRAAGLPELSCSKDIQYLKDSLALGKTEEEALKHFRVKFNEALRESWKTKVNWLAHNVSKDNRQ
PI3K delta, sequence (P27986 whole entry partner): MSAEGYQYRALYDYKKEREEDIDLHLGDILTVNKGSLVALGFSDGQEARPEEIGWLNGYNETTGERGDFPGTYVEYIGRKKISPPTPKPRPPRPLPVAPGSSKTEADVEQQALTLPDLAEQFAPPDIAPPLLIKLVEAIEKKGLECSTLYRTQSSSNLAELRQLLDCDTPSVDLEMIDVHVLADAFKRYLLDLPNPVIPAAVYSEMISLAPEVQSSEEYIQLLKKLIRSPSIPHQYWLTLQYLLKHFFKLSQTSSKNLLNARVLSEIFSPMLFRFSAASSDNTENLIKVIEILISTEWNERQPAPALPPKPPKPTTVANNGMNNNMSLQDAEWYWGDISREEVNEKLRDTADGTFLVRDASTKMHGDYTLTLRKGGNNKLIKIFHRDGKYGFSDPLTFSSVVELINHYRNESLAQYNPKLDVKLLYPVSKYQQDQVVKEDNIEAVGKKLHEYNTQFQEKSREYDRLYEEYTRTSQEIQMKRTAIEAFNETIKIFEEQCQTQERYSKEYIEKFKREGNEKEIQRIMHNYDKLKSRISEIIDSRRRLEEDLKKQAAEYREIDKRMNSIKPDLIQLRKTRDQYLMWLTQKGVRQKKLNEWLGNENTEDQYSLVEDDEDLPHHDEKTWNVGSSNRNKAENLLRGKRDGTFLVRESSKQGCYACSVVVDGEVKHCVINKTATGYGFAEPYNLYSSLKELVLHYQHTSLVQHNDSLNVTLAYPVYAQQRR

For `Cn1c(C(=O)NCC2CC2)nc2c(N3CCC(n4c(=O)[nH]c5c(F)cccc54)CC3)ncnc21` [Compound 278, N-(cyclopropylmethyl)-6-[4-(4-fluoro-2-oxo-2,3-dihydro-1H-benzimidazol-1-yl)piperidin-1-yl]-9-methyl-9H-purine-8-carboxamide], the IC50 – broadly, the concentration that inhibits the measured activity by half – lay in the range of 50 to 250 nM.
`Cn1c(-c2ccc(C(F)(F)F)nc2)nc2c(N3CCC(n4c(=O)[nH]c5ccccc54)CC3)ncnc21` [Compound 279, 1-(1-{9-methyl-8-[6-(trifluoromethyl)pyridin-3-yl]-9H-purin-6-yl}piperidin-4-yl)-1,3-dihydro-2H-benzimidazol-2-one] returned an IC50 of less than 50 nM.
Then `Cn1c(-c2ccnnc2)nc2c(N3CCC(n4c(=O)[nH]c5ccccc54)CC3)ncnc21` [Compound 280, 1-[1-(9-methyl-8-pyridazin-4-yl-9H-purin-6-yl)piperidin-4-yl]-1,3-dihydro-2H-benzimidazol-2-one], with 50 to 250 nM.
The result for `CCn1ncc(-c2nc3c(N4CCC(n5c(=O)[nH]c6ccccc65)CC4)ncnc3n2C)c1C` [Compound 281, 1-{1-[8-(1-ethyl-5-methyl-1H-pyrazol-4-yl)-9-methyl-9H-purin-6-yl]piperidin-4-yl}-1,3-dihydro-2H-benzimidazol-2-one] reads less than 50 nM.
`Cc1cncc(-c2nc3c(N4CCC(n5c(=O)[nH]c6ccccc65)CC4)ncnc3n2C)c1` [Compound 282, 1-{1-[9-methyl-8-(5-methylpyridin-3-yl)-9H-purin-6-yl]piperidin-4-yl}-1,3-dihydro-2H-benzimidazol-2-one] returned an IC50 of less than 50 nM.
Then `Cn1c(-c2ccc(Cl)nc2)nc2c(N3CCC(n4c(=O)[nH]c5ccccc54)CC3)ncnc21` [Compound 283, 1-{1-[8-(6-chloropyridin-3-yl)-9-methyl-9H-purin-6-yl]piperidin-4-yl}-1,3-dihydro-2H-benzimidazol-2-one], with less than 50 nM; and `Cc1nc(C(F)(F)F)ccc1-c1nc2c(N3CCC(n4c(=O)[nH]c5ccccc54)CC3)ncnc2n1C` [Compound 284, 1-(1-{9-methyl-8-[2-methyl-6-(trifluoromethyl)pyridin-3-yl]-9H-purin-6-yl}piperidin-4-yl)-1,3-dihydro-2H-benzimidazol-2-one], with 500 to 1500 nM; and `Cn1c(-c2cncc(Br)c2)nc2c(N3CCC(n4c(=O)[nH]c5ccccc54)CC3)ncnc21` [Compound 285, 1-{1-[8-(5-bromopyridin-3-yl)-9-methyl-9H-purin-6-yl]piperidin-4-yl}-1,3-dihydro-2H-benzimidazol-2-one], with less than 50 nM.
`Cn1c(-c2cn[nH]c2-c2ccccc2)nc2c(N3CCC(n4c(=O)[nH]c5ccccc54)CC3)ncnc21` [Compound 286, 1-{1-[9-methyl-8-(5-phenyl-1H-pyrazol-4-yl)-9H-purin-6-yl]piperidin-4-yl}-1,3-dihydro-2H-benzimidazol-2-one] came in with an IC50 of less than 50 nM.
The result for `Cn1c(-c2cn[nH]c2C2CC2)nc2c(N3CCC(n4c(=O)[nH]c5ccccc54)CC3)ncnc21` [Compound 287, 1-{1-[8-(5-cyclopropyl-1H-pyrazol-4-yl)-9-methyl-9H-purin-6-yl]piperidin-4-yl}-1,3-dihydro-2H-benzimidazol-2-one] reads less than 50 nM; that for `Cn1cncc1-c1nc2c(N3CCC(n4c(=O)[nH]c5ccccc54)CC3)ncnc2n1C` [Compound 288, 1-{1-[9-methyl-8-(1-methyl-1H-imidazol-5-yl)-9H-purin-6-yl]piperidin-4-yl}-1,3-dihydro-2H-benzimidazol-2-one], less than 50 nM; that for `Cn1c(C(=O)NCC2CC2)nc2c(N3CC=C(n4c(=O)[nH]c5ccccc54)CC3)ncnc21` [Compound 289, N-(cyclopropylmethyl)-9-methyl-6-[4-(2-oxo-2,3-dihydro-1H-benzimidazol-1-yl)-3,6-dihydropyridin-1(2H)-yl]-9H-purine-8-carboxamide], 50 to 250 nM.
Then `Cn1c(-c2cccnc2)nc2c(N3CCC4(CC3)C(=O)Nc3ccccc34)ncnc21` [Compound 290, 1′-(9-methyl-8-pyridin-3-yl-9H-purin-6-yl)spiro[indole-3,4′-piperidin]-2(1H)-one], with less than 50 nM; and `CCn1c(-c2cccnc2)nc2c(N3CCC4(CC3)C(=O)Nc3ccccc34)ncnc21` [Compound 291, 1′-(9-ethyl-8-pyridin-3-yl-9H-purin-6-yl)spiro[indole-3,4′-piperidin]-2(1H)-one], with less than 50 nM.
Then `CCn1c(-c2cncnc2)nc2c(N3CCC4(CC3)C(=O)Nc3ccccc34)ncnc21` [Compound 292, 1′-(9-ethyl-8-pyrimidin-5-yl-9H-purin-6-yl)spiro[indole-3,4′-piperidin]-2(1H)-one], with less than 50 nM.
In the case of `Cn1c(-c2cncnc2)nc2c(N3CCC4(CC3)C(=O)Nc3ccccc34)ncnc21` [Compound 293, 1′-(9-Methyl-8-pyrimidin-5-yl-9H-purin-6-yl)spiro[indole-3,4′-piperidin]-2(1H)-one], the IC50 was less than 50 nM.
Then `CCn1c(-c2cncnc2)nc2c(N3CCC(n4c(=O)[nH]c5ccccc54)CC3)ncnc21` [Compound 294, 1-[1-(9-ethyl-8-pyrimidin-5-yl-9H-purin-6-yl)piperidin-4-yl]-1,3-dihydro-2H-benzimidazol-2-one], with less than 50 nM; and `Cn1cc(-c2nc3c(N4CCC(n5c(=O)[nH]c6c(F)cccc65)CC4)ncnc3n2C)cn1` [Compound 295, 4-fluoro-1-{1-[9-methyl-8-(1-methyl-1H-pyrazol-4-yl)-9H-purin-6-yl]piperidin-4-yl}-1,3-dihydro-2H-benzimidazol-2-one], with less than 50 nM.
The result for `CCn1c(-c2cccnc2)nc2c(N3CCC(n4c(=O)[nH]c5ccccc54)CC3)ncnc21` [Compound 296, 1-[1-(9-ethyl-8-pyridin-3-yl-9H-purin-6-yl)piperidin-4-yl]-1,3-dihydro-2H-benzimidazol-2-one] reads less than 50 nM; that for `Cn1c(-c2cccnn2)nc2c(N3CCC(n4c(=O)[nH]c5ccccc54)CC3)ncnc21` [Compound 297, 1-[1-(9-methyl-8-pyridazin-3-yl-9H-purin-6-yl)piperidin-4-yl]-1,3-dihydro-2H-benzimidazol-2-one], 50 to 250 nM.
The result for `Cn1c(-c2ccncn2)nc2c(N3CCC(n4c(=O)[nH]c5ccccc54)CC3)ncnc21` [Compound 298, 1-[1-(9-methyl-8-pyrimidin-4-yl-9H-purin-6-yl)piperidin-4-yl]-1,3-dihydro-2H-benzimidazol-2-one] reads 250 to 500 nM; that for `COc1ccc(-c2nc3c(N4CCC(n5c(=O)[nH]c6ccccc65)CC4)ncnc3n2C)cn1` [Compound 299, 1-(1-{9-methyl-8-[6-(methyloxy)pyridin-3-yl]-9H-purin-6-yl}piperidin-4-yl)-1,3-dihydro-2H-benzimidazol-2-one], less than 50 nM.
Consider `Cn1c(-c2ccc(O)nc2)nc2c(N3CCC(n4c(=O)[nH]c5ccccc54)CC3)ncnc21` [Compound 300, 1-{1-[8-(6-hydroxypyridin-3-yl)-9-methyl-9H-purin-6-yl]piperidin-4-yl}-1,3-dihydro-2H-benzimidazol-2-one], for which the IC50 fell in the range of 500 to 1500 nM.
The result for `Cn1c(-c2c[nH]c3ncccc23)nc2c(N3CCC(n4c(=O)[nH]c5ccccc54)CC3)ncnc21` [Compound 301, 1-{1-[9-methyl-8-(1H-pyrrolo[2,3-b]pyridin-3-yl)-9H-purin-6-yl]piperidin-4-yl}-1,3-dihydro-2H-benzimidazol-2-one] reads less than 50 nM; that for `Cn1c(-c2cnc3[nH]ccc3c2)nc2c(N3CCC(n4c(=O)[nH]c5ccccc54)CC3)ncnc21` [Compound 302, 1-{1-[9-methyl-8-(1H-pyrrolo[2,3-b]pyridin-5-yl)-9H-purin-6-yl]piperidin-4-yl}-1,3-dihydro-2H-benzimidazol-2-one], less than 50 nM.
The result for `Cn1c(-c2ccc(N)nc2)nc2c(N3CCC(n4c(=O)[nH]c5ccccc54)CC3)ncnc21` [Compound 303, 1-{1-[8-(6-aminopyridin-3-yl)-9-methyl-9H-purin-6-yl]piperidin-4-yl}-1,3-dihydro-2H-benzimidazol-2-one] reads less than 50 nM.
Then `CCn1c(-c2cnc(N)nc2)nc2c(N3CCC(n4c(=O)[nH]c5ccccc54)CC3)ncnc21` [Compound 304, 1-{1-[8-(2-aminopyrimidin-5-yl)-9-ethyl-9H-purin-6-yl]piperidin-4-yl)-1,3-dihydro-2H-benzimidazol-2-one], with less than 50 nM; and `Cn1c(-c2cnc(N)nc2)nc2c(N3CCC(n4c(=O)[nH]c5ccccc54)CC3)ncnc21` [Compound 305, 1-{1-[8-(2-aminopyrimidin-5-yl)-9-methyl-9H-purin-6-yl]piperidin-4-yl}-1,3-dihydro-2H-benzimidazol-2-one], with less than 50 nM.
Compound `CCn1c(-c2cnc(OC)nc2)nc2c(N3CCC(n4c(=O)[nH]c5ccccc54)CC3)ncnc21` [Compound 306, 1-(1-{9-ethyl-8-[2-(methyloxy)pyrimidin-5-yl]-9H-purin-6-yl}piperidin-4-yl)-1,3-dihydro-2H-benzimidazol-2-one] displayed an IC50 of less than 50 nM.
Then `CCn1c(-c2cnc(NC)nc2)nc2c(N3CCC(n4c(=O)[nH]c5ccccc54)CC3)ncnc21` [Compound 307, 1-(1-{9-ethyl-8-[2-(methylamino)pyrimidin-5-yl]-9H-purin-6-yl)piperidin-4-yl)-1,3-dihydro-2H-benzimidazol-2-one], with less than 50 nM; and `COc1ncc(-c2nc3c(N4CCC(n5c(=O)[nH]c6ccccc65)CC4)ncnc3n2C)c(OC)n1` [Compound 308, 1-(1-{8-[2,4-bis(methyloxy)pyrimidin-5-yl]-9-methyl-9H-purin-6-yl)piperidin-4-yl)-1,3-dihydro-2H-benzimidazol-2-one], with 50 to 250 nM.
The compound `CNc1ncc(-c2nc3c(N4CCC(n5c(=O)[nH]c6ccccc65)CC4)ncnc3n2C)cn1` [Compound 309, 1-(1-{9-methyl-8-[2-(methylamino)pyrimidin-5-yl]-9H-purin-6-yl}piperidin-4-yl)-1,3-dihydro-2H-benzimidazol-2-one] registered an IC50 of less than 50 nM.
